Key:
Experiment in all cases: relative viability (nuclei count vs DMSO), 5 days (fraction); higher = more cells survive
NCI-H1563 = system: NCI-H1563
How it was run: (§1)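 Each reported value is a median over duplicate plates. It expresses relative viability: treated-well nuclei count divided by vehicle-well nuclei count. Lung cancer cell lines in 1536-well plates were dosed by pin tool a day after seeding, alone with one drug or with a fixed anchor-drug dose plus five library-drug doses (not always all listed) in √10 steps, and nuclei were counted after 5 days.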

NCI-H2342 = system: NCI-H2342
How it was run: as §1

EPLC-272H = system: EPLC-272H
How it was run: as §1

LXF-289 = system: LXF-289
How it was run: as §1

HCC-78 = system: HCC-78
How it was run: as §1

ChaGo-K-1 = system: ChaGo-K-1
How it was run: as §1

NCI-H23 = system: NCI-H23
How it was run: as §1

PC-14 = system: PC-14
How it was run: as §1

NCI-H2126 = system: NCI-H2126
How it was run: as §1

HCC-827 = system: HCC-827
How it was run: as §1

NCI-H322M = system: NCI-H322M
How it was run: as §1

RERF-LC-KJ = system: RERF-LC-KJ
How it was run: as §1

EKVX = system: EKVX
How it was run: as §1

LK-2 = system: LK-2
How it was run: as §1

NCI-H1666 = system: NCI-H1666
How it was run: as §1

SW 900 = system: SW 900
How it was run: as §1

NCI-H1975 = system: NCI-H1975
How it was run: as §1

EMC-BAC-2 = system: EMC-BAC-2
How it was run: as §1

LU99A = system: LU99A
How it was run: as §1

LCLC-103H = system: LCLC-103H
How it was run: as §1

SK-LU-1 = system: SK-LU-1
How it was run: as §1

SW 1573 = system: SW 1573
How it was run: as §1

NCI-H2405 = system: NCI-H2405
How it was run: as §1

## CCN(CC)CCCCNc1ncc2cc(-c3cc(OC)cc(OC)c3)c(NC(=O)NC(C)(C)C)nc2n1 + COc1cc2c(Oc3ccc(NC(=O)C4(C(=O)Nc5ccc(F)cc5)CC4)cc3F)ccnc2cc1OCCCN1CCOCC1 [Foretinib] (partner 0.25 µM)
NCI-H1563; first compound 0.01 µM
  relative viability: 0.921
NCI-H1563; first compound 0.03162 µM
  relative viability: 0.896
NCI-H1563; first compound 0.1 µM
  relative viability: 1.03
NCI-H1563; first compound 0.3162 µM
  relative viability: 0.907
NCI-H1563; first compound 1 µM
  relative viability: 0.748
NCI-H2342; first compound 0.01 µM
  relative viability: 1.19
NCI-H2342; first compound 0.03162 µM
  relative viability: 1.23
NCI-H2342; first compound 0.1 µM
  relative viability: 1.19
NCI-H2342; first compound 0.3162 µM
  relative viability: 1.03
NCI-H2342; first compound 1 µM
  relative viability: 1
EPLC-272H; first compound 0.01 µM
  relative viability: 0.63
EPLC-272H; first compound 0.03162 µM
  relative viability: 0.877
EPLC-272H; first compound 0.1 µM
  relative viability: 0.693
EPLC-272H; first compound 0.3162 µM
  relative viability: 0.741
EPLC-272H; first compound 1 µM
  relative viability: 0.644
LXF-289; first compound 0.01 µM
  relative viability: 0.979
LXF-289; first compound 0.03162 µM
  relative viability: 0.989
LXF-289; first compound 0.1 µM
  relative viability: 1.02
LXF-289; first compound 0.3162 µM
  relative viability: 0.975
LXF-289; first compound 1 µM
  relative viability: 0.851
HCC-78; first compound 0.01 µM
  relative viability: 0.583
HCC-78; first compound 0.03162 µM
  relative viability: 0.53
HCC-78; first compound 0.1 µM
  relative viability: 0.586
HCC-78; first compound 0.3162 µM
  relative viability: 0.55
HCC-78; first compound 1 µM
  relative viability: 0.56
ChaGo-K-1; first compound 0.01 µM
  relative viability: 0.903
ChaGo-K-1; first compound 0.03162 µM
  relative viability: 1.05
ChaGo-K-1; first compound 0.1 µM
  relative viability: 0.936
ChaGo-K-1; first compound 0.3162 µM
  relative viability: 0.956
ChaGo-K-1; first compound 1 µM
  relative viability: 0.757
NCI-H23; first compound 0.01 µM
  relative viability: 1.01
NCI-H23; first compound 0.03162 µM
  relative viability: 0.831
NCI-H23; first compound 0.1 µM
  relative viability: 1.23
NCI-H23; first compound 0.3162 µM
  relative viability: 0.984
NCI-H23; first compound 1 µM
  relative viability: 0.955
PC-14; first compound 0.01 µM
  relative viability: 0.976
PC-14; first compound 0.03162 µM
  relative viability: 0.976
PC-14; first compound 0.1 µM
  relative viability: 1.08
PC-14; first compound 0.3162 µM
  relative viability: 1.07
PC-14; first compound 1 µM
  relative viability: 0.885
NCI-H2126; first compound 0.01 µM
  relative viability: 1.37
NCI-H2126; first compound 0.03162 µM
  relative viability: 1.3
NCI-H2126; first compound 0.1 µM
  relative viability: 1.14
NCI-H2126; first compound 0.3162 µM
  relative viability: 1.22
NCI-H2126; first compound 1 µM
  relative viability: 1.11
HCC-827; first compound 0.01 µM
  relative viability: 1.05
HCC-827; first compound 0.03162 µM
  relative viability: 1.01
HCC-827; first compound 0.1 µM
  relative viability: 1.19
HCC-827; first compound 0.3162 µM
  relative viability: 1.17
HCC-827; first compound 1 µM
  relative viability: 1.05
NCI-H322M; first compound 0.01 µM
  relative viability: 0.991
NCI-H322M; first compound 0.03162 µM
  relative viability: 0.946
NCI-H322M; first compound 0.1 µM
  relative viability: 1.08
NCI-H322M; first compound 0.3162 µM
  relative viability: 1.01
NCI-H322M; first compound 1 µM
  relative viability: 0.966
RERF-LC-KJ; first compound 0.01 µM
  relative viability: 0.893
RERF-LC-KJ; first compound 0.03162 µM
  relative viability: 0.901
RERF-LC-KJ; first compound 0.1 µM
  relative viability: 0.871
RERF-LC-KJ; first compound 0.3162 µM
  relative viability: 0.872
RERF-LC-KJ; first compound 1 µM
  relative viability: 0.941
EKVX; first compound 0.01 µM
  relative viability: 0.589
EKVX; first compound 0.03162 µM
  relative viability: 0.471
EKVX; first compound 0.1 µM
  relative viability: 0.781
EKVX; first compound 0.3162 µM
  relative viability: 0.949
EKVX; first compound 1 µM
  relative viability: 0.758
LK-2; first compound 0.01 µM
  relative viability: 1.06
LK-2; first compound 0.03162 µM
  relative viability: 1.13
LK-2; first compound 0.1 µM
  relative viability: 1.66
LK-2; first compound 0.3162 µM
  relative viability: 0.962
LK-2; first compound 1 µM
  relative viability: 0.663
NCI-H1666; first compound 0.01 µM
  relative viability: 0.936
NCI-H1666; first compound 0.03162 µM
  relative viability: 0.979
NCI-H1666; first compound 0.1 µM
  relative viability: 0.977
NCI-H1666; first compound 0.3162 µM
  relative viability: 0.892
NCI-H1666; first compound 1 µM
  relative viability: 0.919
SW 900; first compound 0.01 µM
  relative viability: 0.891
SW 900; first compound 0.03162 µM
  relative viability: 0.733
SW 900; first compound 0.3162 µM
  relative viability: 0.745
SW 900; first compound 1 µM
  relative viability: 0.557
NCI-H1975; first compound 0.01 µM
  relative viability: 0.931
NCI-H1975; first compound 0.03162 µM
  relative viability: 0.956
NCI-H1975; first compound 0.1 µM
  relative viability: 1.29
NCI-H1975; first compound 0.3162 µM
  relative viability: 1.04
NCI-H1975; first compound 1 µM
  relative viability: 0.867
EMC-BAC-2; first compound 0.01 µM
  relative viability: 0.54
EMC-BAC-2; first compound 0.03162 µM
  relative viability: 1.02
EMC-BAC-2; first compound 0.1 µM
  relative viability: 0.983
EMC-BAC-2; first compound 0.3162 µM
  relative viability: 1.13
EMC-BAC-2; first compound 1 µM
  relative viability: 0.952
LU99A; first compound 0.01 µM
  relative viability: 0.828
LU99A; first compound 0.03162 µM
  relative viability: 0.888
LU99A; first compound 0.1 µM
  relative viability: 0.91
LU99A; first compound 0.3162 µM
  relative viability: 0.867
LU99A; first compound 1 µM
  relative viability: 0.782
LCLC-103H; first compound 0.01 µM
  relative viability: 0.942
LCLC-103H; first compound 0.03162 µM
  relative viability: 0.866
LCLC-103H; first compound 0.1 µM
  relative viability: 0.858
LCLC-103H; first compound 0.3162 µM
  relative viability: 0.755
LCLC-103H; first compound 1 µM
  relative viability: 0.597
SK-LU-1; first compound 0.01 µM
  relative viability: 0.942
SK-LU-1; first compound 0.03162 µM
  relative viability: 0.78
SK-LU-1; first compound 0.1 µM
  relative viability: 1.12
SK-LU-1; first compound 0.3162 µM
  relative viability: 1.07
SK-LU-1; first compound 1 µM
  relative viability: 0.662
SW 1573; first compound 0.01 µM
  relative viability: 0.928
SW 1573; first compound 0.03162 µM
  relative viability: 0.878
SW 1573; first compound 0.1 µM
  relative viability: 0.924
SW 1573; first compound 0.3162 µM
  relative viability: 0.896
SW 1573; first compound 1 µM
  relative viability: 0.814
NCI-H2405; first compound 0.01 µM
  relative viability: 1.05
NCI-H2405; first compound 0.03162 µM
  relative viability: 1.05
NCI-H2405; first compound 0.1 µM
  relative viability: 1.03
NCI-H2405; first compound 0.3162 µM
  relative viability: 1.07
NCI-H2405; first compound 1 µM
  relative viability: 1.04
